In PubChem BioAssay AID1918930 (Molecular Pharmacology Branch, DTP, NCI, 2023):
Where “and” joins values, the source holds several entries; their conditions need not be identical. Equal values may be shown once.

System: 233499-124-R-J3-PDC complex spheroid viability, % test/control
Assay: Anticancer human tumor 233499-124-R-J3-PDC patient-derived colon adenocarcinoma cell line growth inhibition
Details: for viability, T/C: stronger effect = lower value
In short: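 Multicellular complex spheroids of tumor cells with human endothelial cells (HUVEC) and mesenchymal stem cells; the LSD1 inhibitor iadademstat was combined with standard-of-care or investigational agents. Top concentration at or near clinical Cmax, half-log dilutions; final DMSO ≤0.25%.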
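Also: spheroids exposed to agents for one week before readout.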

CC(C)CC(NC(=O)C(Cc1ccccc1)NC(=O)c1cnccn1)B(O)O (stereo not drawn)
viability, T/C (compound 0.000316 µM): 96% and 81.8%
viability, T/C (compound 0.00316 µM): 21.4% and 0.26%
viability, T/C (compound 0.01 µM): 7.18% and 0.25%
viability, T/C (compound 0.0316 µM): 5.21% and 0.25%
viability, T/C (compound 0.1 µM): 3.6% and 0.35%
IC50 (curve of compound): 2.07 nM and 0.496 nM

O=C(c1cc(Cc2n[nH]c(=O)c3ccccc23)ccc1F)N1CCN(C(=O)C2CC2)CC1
viability, T/C (compound 0.0316 µM): 91.1% and 97.1%
viability, T/C (compound 0.1 µM): 92.6% and 76.9%
viability, T/C (compound 0.316 µM): 113% and 88.8%
viability, T/C (compound 1 µM): 97.3% and 90.8%
viability, T/C (compound 3.16 µM): 76.1% and 75.5%
viability, T/C (compound 10 µM): 80.3% and 84.2%
IC50 (curve of compound): > 10000 nM

O=C(C=Cn1cnc(-c2cc(C(F)(F)F)cc(C(F)(F)F)c2)n1)NNc1cnccn1 + NC1CC1c1ccc(-c2cccc(O)c2)cc1
IC50 (curve of first compound, second compound 0.1 µM): 821 nM
IC50 (curve of first compound, second compound 0.316 µM): 669 nM
IC50 (curve of first compound, second compound 1 µM): 805 nM
IC50 (curve of first compound, second compound 3.16 µM): 920 nM
IC50 (curve of first compound, second compound 10 µM): 557 nM
viability, T/C (second compound 0.1 µM, first compound 0.00316 µM): 102%
viability, T/C (second compound 0.1 µM, first compound 0.01 µM): 83.9%
viability, T/C (second compound 0.1 µM, first compound 0.0316 µM): 95.7%
viability, T/C (second compound 0.1 µM, first compound 0.1 µM): 101%
viability, T/C (second compound 0.1 µM, first compound 0.316 µM): 77.6%
viability, T/C (second compound 0.1 µM, first compound 1 µM): 44.3%
viability, T/C (second compound 0.316 µM, first compound 0.00316 µM): 91.8%
viability, T/C (second compound 0.316 µM, first compound 0.01 µM): 104%
viability, T/C (second compound 0.316 µM, first compound 0.0316 µM): 97.2%
viability, T/C (second compound 0.316 µM, first compound 0.1 µM): 81.2%
viability, T/C (second compound 0.316 µM, first compound 0.316 µM): 73.5%
viability, T/C (second compound 0.316 µM, first compound 1 µM): 38.2%
viability, T/C (second compound 1 µM, first compound 0.00316 µM): 67.3%
viability, T/C (second compound 1 µM, first compound 0.01 µM): 78.9%
viability, T/C (second compound 1 µM, first compound 0.0316 µM): 90.9%
viability, T/C (second compound 1 µM, first compound 0.1 µM): 101%
viability, T/C (second compound 1 µM, first compound 0.316 µM): 67.3%
viability, T/C (second compound 1 µM, first compound 1 µM): 46%
viability, T/C (second compound 3.16 µM, first compound 0.00316 µM): 84.1%
viability, T/C (second compound 3.16 µM, first compound 0.01 µM): 102%
viability, T/C (second compound 3.16 µM, first compound 0.0316 µM): 83.5%
viability, T/C (second compound 3.16 µM, first compound 0.1 µM): 94.3%
viability, T/C (second compound 3.16 µM, first compound 0.316 µM): 72.5%
viability, T/C (second compound 3.16 µM, first compound 1 µM): 48.2%
viability, T/C (second compound 10 µM, first compound 0.00316 µM): 73.5%
viability, T/C (second compound 10 µM, first compound 0.01 µM): 83.1%
viability, T/C (second compound 10 µM, first compound 0.0316 µM): 78.2%
viability, T/C (second compound 10 µM, first compound 0.1 µM): 81.9%
viability, T/C (second compound 10 µM, first compound 0.316 µM): 61.7%
viability, T/C (second compound 10 µM, first compound 1 µM): 38%
